Test results taken from ChEMBL document CHEMBL1201861, “Genomics of Drug Sensitity in Cancer screening data, Wellcome Trust Sanger Institute”.
Where a name gives a salt, the structure may show the parent alone.

What was measured:
DBTRG-05MG = assay: cells; assay type: functional, cell-based, Homo sapiens
Description: SANGER: Inhibition of human DBTRG-05MG cell growth in a cell viability assay.

EFO-21 = assay: cells; assay type: functional, cell-based, Homo sapiens
Description: SANGER: Inhibition of human EFO-21 cell growth in a cell viability assay.

FaDu = assay: cells; assay type: functional, cell-based, Homo sapiens
Description: SANGER: Inhibition of human FADU cell growth in a cell viability assay.

GAMG = assay: cells; assay type: functional, cell-based, Homo sapiens
Description: SANGER: Inhibition of human GAMG cell growth in a cell viability assay.

HT-3 = assay: cells; assay type: functional, cell-based, Homo sapiens
Description: SANGER: Inhibition of human HT-3 cell growth in a cell viability assay.

IGROV-1 = assay: cells; assay type: functional, cell-based, Homo sapiens
Description: SANGER: Inhibition of human IGROV-1 cell growth in a cell viability assay.

KU-19-19 = assay: cells; assay type: functional, cell-based, Homo sapiens
Description: SANGER: Inhibition of human KU-19-19 cell growth in a cell viability assay.

LoVo = assay: cells; assay type: functional, cell-based, Homo sapiens
Description: SANGER: Inhibition of human LoVo cell growth in a cell viability assay.

MDA-MB-361 = assay: cells; assay type: functional, cell-based, Homo sapiens
MEL-HO = assay: cells; assay type: functional, cell-based, Homo sapiens
Description: SANGER: Inhibition of human MEL-HO cell growth in a cell viability assay.

MKN-28 = assay: cells; assay type: functional, cell-based, Homo sapiens
Description: SANGER: Inhibition of human MKN28 cell growth in a cell viability assay.

MOLT-13 = assay: cells; assay type: functional, cell-based, Homo sapiens; conditions: Homo sapiens, MOLT-13
Description: SANGER: Inhibition of human MOLT-13 cell growth in a cell viability assay.

MeWo = assay: cells; assay type: functional, cell-based, Homo sapiens
Description: SANGER: Inhibition of human Mewo cell growth in a cell viability assay.

PC-14 = assay: cells; assay type: functional, cell-based, Homo sapiens
Description: SANGER: Inhibition of human PC-14 cell growth in a cell viability assay.

SBC-5 = assay: cells; assay type: functional, cell-based, Homo sapiens
Description: SANGER: Inhibition of human SBC-5 cell growth in a cell viability assay.

SF-295 = assay: cells; assay type: functional, cell-based, Homo sapiens
Description: SANGER: Inhibition of human SF295 cell growth in a cell viability assay.

SW837 = assay: cells; assay type: functional, cell-based, Homo sapiens
Description: SANGER: Inhibition of human SW837 cell growth in a cell viability assay.

SiHa = assay: cells; assay type: functional, cell-based, Homo sapiens
Description: SANGER: Inhibition of human SiHa cell growth in a cell viability assay.

T98G = assay: cells; assay type: functional, cell-based, Homo sapiens
Description: SANGER: Inhibition of human T98G cell growth in a cell viability assay.

CWR22R = assay: cells; assay type: functional, cell-based, Homo sapiens
Description: SANGER: Inhibition of human 22RV1 cell growth in a cell viability assay.

A-427 = assay: cells; assay type: functional, cell-based, Homo sapiens
Description: SANGER: Inhibition of human A427 cell growth in a cell viability assay.

BHY = assay: cells; assay type: functional, cell-based, Homo sapiens
Description: SANGER: Inhibition of human BHY cell growth in a cell viability assay.

BT-549 = assay: cells; assay type: functional, cell-based, Homo sapiens; conditions: Homo sapiens, BT-549
Description: SANGER: Inhibition of human BT-549 cell growth in a cell viability assay.

CAL-54 = assay: cells; assay type: functional, cell-based, Homo sapiens
Description: SANGER: Inhibition of human CAL-54 cell growth in a cell viability assay.

TYK-nu = assay: cells; assay type: functional, cell-based, Homo sapiens
Description: SANGER: Inhibition of human TYK-nu cell growth in a cell viability assay.

CAPAN-1 = assay: cells; assay type: functional, cell-based, Homo sapiens
Description: SANGER: Inhibition of human CAPAN-1 cell growth in a cell viability assay.

CHP-212 = assay: cells; assay type: functional, cell-based, Homo sapiens
Description: SANGER: Inhibition of human CHP-212 cell growth in a cell viability assay.

G-361 = assay: cells; assay type: functional, cell-based, Homo sapiens
IST-SL2 = assay: cells; assay type: functional, cell-based, Homo sapiens
Description: SANGER: Inhibition of human IST-SL2 cell growth in a cell viability assay.

KYSE-520 cell line = assay: cells; assay type: functional, cell-based, Homo sapiens
Description: SANGER: Inhibition of human KYSE-520 cell growth in a cell viability assay.

MDA-MB-157 = assay: cells; assay type: functional, cell-based, Homo sapiens
Description: SANGER: Inhibition of human MDA-MB-157 cell growth in a cell viability assay.

NCI-H1417 = assay: cells; assay type: functional, cell-based, Homo sapiens
Description: SANGER: Inhibition of human NCI-H1417 cell growth in a cell viability assay.

NCI-H1522 = assay: cells; assay type: functional, cell-based, Homo sapiens
Description: SANGER: Inhibition of human NCI-H1522 cell growth in a cell viability assay.

NCI-H2405 = assay: cells; assay type: functional, cell-based, Homo sapiens
Description: SANGER: Inhibition of human NCI-H2405 cell growth in a cell viability assay.

NCI-H322M = assay: cells; assay type: functional, cell-based, Homo sapiens
Description: SANGER: Inhibition of human NCI-H322M cell growth in a cell viability assay.

NUGC-3 = assay: cells; assay type: functional, cell-based, Homo sapiens
Description: SANGER: Inhibition of human NUGC-3 cell growth in a cell viability assay.

RPMI-6666 = assay: cells; assay type: functional, cell-based, Homo sapiens
Description: SANGER: Inhibition of human RPMI-6666 cell growth in a cell viability assay.

RPMI 8402 = assay: SANGER: Inhibition of human RPMI-8402 cell growth in a cell viability assay.; assay type: functional, cell-based; conditions: read-out: IC50
SNU-C1 = assay: cells; assay type: functional, cell-based, Homo sapiens
Description: SANGER: Inhibition of human SNU-C1 cell growth in a cell viability assay.

SU-DHL-1 = assay: SANGER: Inhibition of human SU-DHL-1 cell growth in a cell viability assay.; assay type: functional, cell-based
SAOS-2 = assay: cells; assay type: functional, cell-based, Homo sapiens
Description: SANGER: Inhibition of human Saos-2 cell growth in a cell viability assay.

ARH-77 = assay: cells; assay type: functional, cell-based, Homo sapiens
Description: SANGER: Inhibition of human ARH-77 cell growth in a cell viability assay.

AU565 = assay: cells; assay type: functional, cell-based, Homo sapiens
Description: SANGER: Inhibition of human AU565 cell growth in a cell viability assay.

CAL-120 = assay: cells; assay type: functional, cell-based, Homo sapiens
Description: SANGER: Inhibition of human CAL-120 cell growth in a cell viability assay.

TE-441-T = assay: cells; assay type: functional, cell-based, Homo sapiens
Description: SANGER: Inhibition of human TE-441-T cell growth in a cell viability assay.

TUR = assay: cells; assay type: functional, cell-based, Homo sapiens
Description: SANGER: Inhibition of human TUR cell growth in a cell viability assay.

WSU-NHL = assay: cells; assay type: functional, cell-based, Homo sapiens
Description: SANGER: Inhibition of human WSU-NHL cell growth in a cell viability assay.

## CN(C)C(=N)NC(=N)N [METFORMIN]
DBTRG-05MG; Homo sapiens, DBTRG-05MG
  IC50: 7270 µM
EFO-21; Homo sapiens, EFO-21
  IC50: > 20000 µM
FaDu; Homo sapiens, FaDu
  IC50: 11200 µM
GAMG; Homo sapiens, GAMG
  IC50: > 20000 µM
HT-3; Homo sapiens, HT-3
  IC50: 8160 µM
IGROV-1; Homo sapiens, IGROV-1
  IC50: > 20000 µM
KU-19-19; Homo sapiens, KU-19-19
  IC50: 9610 µM
LoVo; Homo sapiens, LoVo
  IC50: > 20000 µM
MDA-MB-361; Homo sapiens, MDA-MB-361
  IC50: > 20000 µM
MEL-HO; Homo sapiens, MEL-HO
  IC50: 8840 µM
MKN-28; Homo sapiens, MKN-28
  IC50: > 20000 µM
MOLT-13
  IC50: 556 µM
MeWo; Homo sapiens, MeWo
  IC50: > 20000 µM
PC-14; Homo sapiens, PC-14
  IC50: 17600 µM
SBC-5; Homo sapiens, SBC-5
  IC50: 17100 µM
SF-295; Homo sapiens, SF-295
  IC50: 6170 µM
SW837; Homo sapiens, SW837
  IC50: > 20000 µM
SiHa; Homo sapiens, SiHa
  IC50: > 20000 µM
T98G; Homo sapiens, T98G
  IC50: > 20000 µM
CWR22R; Homo sapiens, 22Rv1
  IC50: 18000 µM
A-427; Homo sapiens, A-427
  IC50: 7170 µM
BHY; Homo sapiens, BHY
  IC50: > 20000 µM
BT-549
  IC50: 4200 µM
CAL-54; Homo sapiens, CAL-54
  IC50: 3360 µM
TYK-nu; Homo sapiens, TYK-nu
  IC50: 16500 µM
CAPAN-1; Homo sapiens, CAPAN-1
  IC50: > 20000 µM
CHP-212; Homo sapiens, CHP-212
  IC50: 9630 µM

## COC1=CC(c2cc3ccccc3[nH]2)=N/C1=C\c1[nH]c(C)cc1C [OBATOCLAX MESYLATE]
DBTRG-05MG; Homo sapiens, DBTRG-05MG
  IC50: 2.06 µM
EFO-21; Homo sapiens, EFO-21
  IC50: 0.841 µM
FaDu; Homo sapiens, FaDu
  IC50: 0.426 µM
G-361; Homo sapiens, G-361
  IC50: < 0.0625 µM
GAMG; Homo sapiens, GAMG
  IC50: 0.058 µM
HT-3; Homo sapiens, HT-3
  IC50: 1.31 µM
IGROV-1; Homo sapiens, IGROV-1
  IC50: < 0.0625 µM
IST-SL2; Homo sapiens, IST-SL2
  IC50: 0.0947 µM
KU-19-19; Homo sapiens, KU-19-19
  IC50: 0.646 µM
KYSE-520 cell line; Homo sapiens, KYSE-520
  IC50: 0.483 µM
LoVo; Homo sapiens, LoVo
  IC50: 0.0872 µM
MDA-MB-157; Homo sapiens, MDA-MB-157
  IC50: 0.823 µM
MDA-MB-361; Homo sapiens, MDA-MB-361
  IC50: 0.998 µM
MEL-HO; Homo sapiens, MEL-HO
  IC50: 0.0235 µM
MKN-28; Homo sapiens, MKN-28
  IC50: 0.177 µM
MeWo; Homo sapiens, MeWo
  IC50: 4.96 µM
NCI-H1417; Homo sapiens, NCI-H1417
  IC50: 0.265 µM
NCI-H1522; Homo sapiens, NCI-H1522
  IC50: 2.02 µM
NCI-H2405; Homo sapiens, NCI-H2405
  IC50: 0.347 µM
NCI-H322M; Homo sapiens, NCI-H322M
  IC50: > 16 µM
NUGC-3; Homo sapiens, NUGC-3
  IC50: 0.0305 µM
PC-14; Homo sapiens, PC-14
  IC50: 0.0525 µM
RPMI-6666; Homo sapiens, RPMI-6666
  IC50: 0.0897 µM
RPMI 8402; Homo sapiens, RPMI 8402
  IC50: 0.0186 µM
SBC-5; Homo sapiens, SBC-5
  IC50: 0.212 µM
SF-295; Homo sapiens, SF-295
  IC50: 0.34 µM
SNU-C1; Homo sapiens, SNU-C1
  IC50: > 16 µM
SU-DHL-1; Homo sapiens, SU-DHL-1
  IC50: 1.25 µM
SW837; Homo sapiens, SW837
  IC50: 0.467 µM
SAOS-2; Homo sapiens, SAOS-2
  IC50: 0.246 µM
SiHa; Homo sapiens, SiHa
  IC50: 3.12 µM
T98G; Homo sapiens, T98G
  IC50: 5.07 µM
CWR22R; Homo sapiens, 22Rv1
  IC50: 0.274 µM
A-427; Homo sapiens, A-427
  IC50: 0.0851 µM
ARH-77; Homo sapiens, ARH-77
  IC50: 0.11 µM
AU565; Homo sapiens, AU565
  IC50: 0.425 µM
BHY; Homo sapiens, BHY
  IC50: < 0.0625 µM
CAL-120; Homo sapiens, CAL-120
  IC50: 0.296 µM
CAL-54; Homo sapiens, CAL-54
  IC50: 1.31 µM
TE-441-T; Homo sapiens, TE-441-T
  IC50: 1.43 µM
TUR; Homo sapiens, TUR
  IC50: 1.16 µM
TYK-nu; Homo sapiens, TYK-nu
  IC50: 0.179 µM
WSU-NHL; Homo sapiens, WSU-NHL
  IC50: 0.0755 µM
CAPAN-1; Homo sapiens, CAPAN-1
  IC50: 0.523 µM
CHP-212; Homo sapiens, CHP-212
  IC50: 0.081 µM

## CC(=O)O[C@H]1C(=O)[C@@]2(C)[C@H]([C@H](OC(=O)c3ccccc3)[C@]3(O)C[C@H](OC(=O)[C@H](O)[C@@H](NC(=O)c4ccccc4)c4ccccc4)C(C)=C1C3(C)C)[C@]1(OC(C)=O)CO[C@@H]1C[C@@H]2O [PACLITAXEL]
IST-SL2; Homo sapiens, IST-SL2
  IC50: 0.0427 µM
MOLT-13
  IC50: 0.0164 µM
NCI-H1417; Homo sapiens, NCI-H1417
  IC50: > 0.102 µM
NCI-H1522; Homo sapiens, NCI-H1522
  IC50: > 0.102 µM
NCI-H322M; Homo sapiens, NCI-H322M
  IC50: > 0.102 µM
RPMI-6666; Homo sapiens, RPMI-6666
  IC50: 0.0215 µM
RPMI 8402; Homo sapiens, RPMI 8402
  IC50: 0.0126 µM
SNU-C1; Homo sapiens, SNU-C1
  IC50: > 0.102 µM
SU-DHL-1; Homo sapiens, SU-DHL-1
  IC50: > 0.102 µM
ARH-77; Homo sapiens, ARH-77
  IC50: 0.026 µM
TE-441-T; Homo sapiens, TE-441-T
  IC50: > 0.102 µM
TUR; Homo sapiens, TUR
  IC50: > 0.102 µM
WSU-NHL; Homo sapiens, WSU-NHL
  IC50: > 0.102 µM

## BLEOMYCIN
DBTRG-05MG; dbtrg-05mg
  IC50: 5.67 µM
EFO-21; efo-21
  IC50: 4.33 µM
FaDu; fadu
  IC50: 5.14 µM
G-361; g-361
  IC50: 0.0883 µM
GAMG; gamg
  IC50: 0.289 µM
HT-3; ht-3
  IC50: 5.78 µM
IGROV-1; igrov-1
  IC50: 0.145 µM
IST-SL2; ist-sl2
  IC50: 0.000173 µM
KU-19-19; ku-19-19
  IC50: 525 µM
KYSE-520 cell line; kyse-520
  IC50: 6.79 µM
LoVo; lovo
  IC50: 0.0712 µM
MDA-MB-157; mda-mb-157
  IC50: 307 µM
MDA-MB-361; mda-mb-361
  IC50: 0.719 µM
MEL-HO; mel-ho
  IC50: 0.85 µM
MKN-28; mkn-28
  IC50: 0.00108 µM
MeWo; mewo
  IC50: 148 µM
NCI-H1417; nci-h1417
  IC50: 30.4 µM
NCI-H1522; nci-h1522
  IC50: 2450 µM
NCI-H2405; nci-h2405
  IC50: 4.28 µM
NCI-H322M; nci-h322m
  IC50: 7320 µM
NUGC-3; nugc-3
  IC50: 1.13 µM
PC-14; pc-14
  IC50: 0.183 µM
RPMI-6666; rpmi-6666
  IC50: 0.445 µM
RPMI 8402; rpmi-8402
  IC50: 30.7 µM
SBC-5; sbc-5
  IC50: 0.624 µM
SF-295; sf-295
  IC50: 0.0214 µM
SNU-C1; snu-c1
  IC50: 82 µM
SU-DHL-1; su-dhl-1
  IC50: 2.05 µM
SW837; sw837
  IC50: 1.61 µM
SAOS-2; saos-2
  IC50: 0.172 µM
SiHa; siha
  IC50: 5170 µM
T98G; t98g
  IC50: 63.7 µM
CWR22R; cwr22r
  IC50: 7.33 µM
A-427; a-427
  IC50: 0.000118 µM
ARH-77; arh-77
  IC50: 0.105 µM
AU565; au565
  IC50: 2.05 µM
BHY; bhy
  IC50: 1.83 µM
CAL-120; cal-120
  IC50: 5.56 µM
CAL-54; cal-54
  IC50: 0.191 µM
TE-441-T; te-441-t
  IC50: 24.6 µM
TUR; tur
  IC50: 18.9 µM
TYK-nu; tyk-nu
  IC50: 3.03 µM
WSU-NHL; wsu-nhl
  IC50: 31.6 µM
CAPAN-1; capan-1
  IC50: 2.92 µM
CHP-212; chp-212
  IC50: 0.148 µM
